Assay results from patent publication US8846750B2, “Pharmaceutical and food compositions for preventing or treating diabetes or obesity” (Korea Ocean Research and Development Institute, priority 2010, dated 2014).

How the values were obtained:
TC-PTP (PTPN2) = biological target: T1, TC-PTP (PTPN2) (Homo sapiens, UniProt P17706); assay: Selectivity for protein tyrosine phosphatases: TC-PTP (PTPN2); assay type: biochemical; settings: 0, 50, 100 or 200 nM tested
T1 construct: purchased Bioneer, Korea
T1 sequence (P17706 1-415): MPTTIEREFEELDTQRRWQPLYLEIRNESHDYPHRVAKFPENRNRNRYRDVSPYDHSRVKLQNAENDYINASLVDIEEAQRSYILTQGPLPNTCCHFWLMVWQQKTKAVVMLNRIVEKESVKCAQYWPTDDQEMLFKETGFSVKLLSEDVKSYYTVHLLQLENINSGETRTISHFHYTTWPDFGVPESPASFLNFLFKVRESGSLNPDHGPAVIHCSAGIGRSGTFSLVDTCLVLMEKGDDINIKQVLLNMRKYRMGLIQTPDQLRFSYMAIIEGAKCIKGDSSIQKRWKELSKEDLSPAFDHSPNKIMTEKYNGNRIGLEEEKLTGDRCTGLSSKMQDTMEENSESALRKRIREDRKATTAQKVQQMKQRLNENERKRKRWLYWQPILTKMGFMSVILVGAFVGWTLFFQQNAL
Description: (§1) In order to examine the selectivity of sodium lobarate for protein tyrosine phosphatases, the inhibitory activities of sodium lobarate against PTP-1b, PTPN2, PTPN5, PTPN6, PTPN7 and PTPN13 were examined by spectroscopically measuring the activities of the enzymes.
Specifically, to 0.5 mg/Ml of PTP-1b, PTPN2, PTPN5, PTPN6, PTPN7 or PTPN13 (Bioneer, Korea) in protein tyrosine phosphatase buffer (20 mM Tris-Hcl, pH 8.0, 0.75 mM NaCl, 0.5 mM EDTA, 5 mM β-mercaptoethanol, 50% glycerol), 0, 50, 100 or 200 nM sodium lobarate and the substrate [pTyr1146] insulin receptor (1142-1153, Sigma, USA) were added. Then, each of the mixtures was allowed to react at room temperature for 10-30 minutes, and then malachite green-molybdate dye solution (Sigma, USA) was added thereto and reacted at room temperature for 10 minutes. After completion of the reaction with the substrate, the absorbance at 620 nm was measured. […]
Specifically, to 0.5 mg/Ml of PTP-1b, PTPN2, PTPN5, PTPN6, PTPN7 or PTPN13 (Bioneer, Korea) in protein tyrosine phosphatase buffer (20 mM Tris-Hcl, pH 8.0, 0.75 mM NaCl, 0.5 mM EDTA, 5 mM β-mercaptoethanol, 50% glycerol), 0, 50, 100 or 200 nM Lobarin and the substrate [pTyr1146] insulin receptor (1142-1153, Sigma, USA) were added. […] After completion of the reaction with the substrate, the absorbance at 620 nm was measured. […]

[1] = tested on: other protein tyrosine phosphatases (PTPN5, PTPN6, PTPN7, PTPN13); assay: Selectivity for protein tyrosine phosphatases: other phosphatases of the panel; assay type: biochemical; settings: for inhibitory activity against other protein tyrosine phosphatases: 0, 50, 100 or 200 nM tested; for selectivity among protein tyrosine phosphatases: PTP-1b, PTPN2, PTPN5, PTPN6, PTPN7 and PTPN13
Description: as §1
(§2) Specifically, to 0.5 mg/Ml of PTP-1b, PTPN2, PTPN5, PTPN6, PTPN7 or PTPN13 (Bioneer, Korea) in protein tyrosine phosphatase buffer (20 mM Tris-Hcl, pH 8.0, 0.75 mM NaCl, 0.5 mM EDTA, 5 mM β-mercaptoethanol, 50% glycerol), 0, 50, 100 or 200 nM sodium lobarate and the substrate [pTyr1146] insulin receptor (1142-1153, Sigma, USA) were added. Then, each of the mixtures was allowed to react at room temperature for 10-30 minutes, and then malachite green-molybdate dye solution (Sigma, USA) was added thereto and reacted at room temperature for 10 minutes. After completion of the reaction with the substrate, the absorbance at 620 nm was measured.
In order to examine the selectivity of Lobarin for protein tyrosine phosphatases, the inhibitory activities of Lobarin against PTP-1b, PTPN2, PTPN5, PTPN6, PTPN7 and PTPN13 were examined by spectroscopically measuring the activities of the enzymes.
as §2, with “Lobarin” for “sodium lobarate”
as §2, with “In order to examine the selectivity of Lobarstin for protein tyrosine phosphatases, the inhibitory activities of Lobarstin against PTP-1b, PTPN2, PTPN5, PTPN6, PTPN7 and PTPN13 were examined by spectroscopically measuring the activities of the enzymes. Specifically,” for “Specifically,”, “Lobarstin” for “sodium lobarate”

[2] = tested on: db/db mice (type 2 diabetic model animals); assay: Blood glucose level following 6 hours of fasting after intraperitoneal administration; assay type: in vivo; settings: 10 mg/kg intraperitoneally daily; for increase in the fasting blood glucose level compared with control group: days 0-21, 6 hours of fasting; for average blood glucose level after 6 hours of fasting: db/db mice
Description: (§3) In order to more accurately measure the antidiabetic effect of sodium lobarate, 200 μl of PBS for a control group and 10 mg/kg of sodium lobarate (PTP-1b activity inhibitory compound) for a test group was administered, respectively, intraperitoneally daily to 7-week-old male db/db mice (type 2 diabetic model animals, C57/BLKS/J-db/db, the Korea Research Institute of Bioscience and Biotechnology), and the blood glucose levels of the animals were measured twice a week. Herein, measurement of the blood glucose level was performed after 6 hours of fasting after intraperitoneal injection of sodium lobarate.
as §3, with “effect of Lobarin, 200 μl” for “effect of sodium lobarate, 200 μl”, “mg/kg of Lobarin for a” for “mg/kg of sodium lobarate (PTP-1b activity inhibitory compound) for a”, “blood glucose levels was performed” for “blood glucose level was performed”, “injection of Lobarin.” for “injection of sodium lobarate.”
In order to more accurately measure the antidiabetic effect of Lobarstin, 200 μl of PBS for a control group and 10 mg/kg of Lobarstin for a test group was administered intraperitoneally daily to 7-week-old male db/db mice (type 2 diabetic model animals, C57/BLKS/J-db/db, the Korea Research Institute of Bioscience and Biotechnology), and the blood glucose levels of the animals were measured twice a week. Herein, measurement of the blood glucose levels was performed after 6 hours of fasting after intraperitoneal injection of Lobarstin.

| inhibitory activity against TC-PTP (PTPN2) (TC-PTP (PTPN2)) | Structure (SMILES) | inhibitory activity against other protein tyrosine phosphatases [1] | selectivity among protein tyrosine phosphatases [1] | increase in the fasting blood glucose level compared with control group [2] | average blood glucose level after 6 hours of fasting ([2]; day 0) | average blood glucose level after 6 hours of fasting ([2]; day 3) | average blood glucose level after 6 hours of fasting ([2]; day 7) | average blood glucose level after 6 hours of fasting ([2]; day 10) | average blood glucose level after 6 hours of fasting ([2]; day 14) | average blood glucose level after 6 hours of fasting ([2]; day 17) | average blood glucose level after 6 hours of fasting ([2]; day 21) |
| --- | --- | --- | --- | --- | --- | --- | --- | --- | --- | --- | --- |
| no inhibitory activity | CCCCCc1c(Oc2cc(OC)cc3c2C(=O)OC3(O)CCCC)c(O)cc(O)c1C(=O)O (stereo not shown) [Lobarin] | no inhibitory activity | acts selectively only on PTP-1b | less than that in the control group | 152 mg/dL | 141 mg/dL | 155 mg/dL | 198 mg/dL | 261 mg/dL | 287 mg/dL | 340 mg/dL |
| no inhibitory activity | CCC/C=C1/OC(=O)c2c(Oc3c(O)cc(O)c(C(=O)O)c3CCCCC)cc(OC)cc21 [Lobarstin] | no inhibitory activity | acts selectively only on PTP-1b | less than that in the control group | 134 mg/dL | – | 182 mg/dL | – | 162 mg/dL | – | 204 mg/dL |
| – | CCCCCc1c2c(cc(O)c1C(=O)[O-])OC(=O)c1c(cc(OC)cc1C(=O)CCCC)O2.[Na+] [sodium lobarate] | – | acts selectively only on PTP-1b | less than that in the control group | 141 mg/dL | 142 mg/dL | 185 mg/dL | 206 mg/dL | 232 mg/dL | 236 mg/dL | 313 mg/dL |
